Experiments:
db/db mice = assay: Antidiabetic and hypolipidaemic activity by the oral route in db/db mice; type: in vivo; settings: 100 mg/kg/day per os
Protocol: The antidiabetic and hypolipidaemic activity of the compounds of formula I [sic] was determined by the oral route in db/db mice.
Two-month-old db/db mice are treated per os for 15 days with the compound of Example 16 (100 mg/kg/day). Each study group comprises seven animals. After treating for three days (D3) and fifteen days (D15), retro-orbital samples are taken after light anaesthesia and fasting for 4 hours.
The following measurements were taken:
quantitative determination of glycaemia (glucose oxidase) at D3 and D15 and of the lipid parameters with regard to the sera at D15 (COBAS): triglycerides, total cholesterol (CHOL), HDL cholesterol (HDL-C) and free fatty acids (FFA) (BioMérieux and Wako Chemicals quantitative determination kit).
The measurements which appear in this table are mean values±standard error.

PPARγ = PPARγ activation, luciferase reporter (J3TkLuc) in CV1 cells; type: cell-based, green monkey; settings: 36 hours incubation, relative to the control value
From the text: (§1) The hypolipidaemic and hypoglycaemic effect of the compounds of the invention results from their ability to activate the PPARα and PPARγ isoforms.
(§2) Analysis of the activation of PPARα and PPARγ is based on the transfection of a DNA allowing the expression of a reporter gene (the gene of luciferase) under the control of the PPARs, either endogenous in the case of PPARγ of exogenous in the case of PPARα. The reporter plasmid J3TkLuc comprises three copies of the response element for PPARs of the human apo A-II gene (Staels, B et al. (1995), J. Clin. Invest., 95, 705-712) which are cloned upstream of the promoter of the thymidine kinase gene of the herpes simplex virus in the plasmid pGL3. This reporter gene was obtained by subcloning, in the plasmid pGL3, the plasmid J3TkCAT described above (Fajas, L et al. (1997), J. Biol. Chem., 272, 18779-18789). […] These cells were inoculated at the rate of 20,000 cells per well (96-well plates) and transfected with 150 ng of reporter DNA complexed with a mixture of lipids. In the case of the SK-Hep1 cells, an expression vector for PPARα, described by Sher, T. et al. (1993), Biochemistry, 32, 5598-5604, is cotransfected. […] At the end of incubation, the cells are lysed and the luciferase activity is measured. […]

PPARα = target: T1, PPARα (Homo sapiens, UniProt Q07869); assay: PPARα activation, luciferase reporter (J3TkLuc) in SK-Hep1 cells cotransfected with PPARα expression vector; type: cell-based; settings: 36 hours incubation, relative to the control value
T1 construct: expressed in transfected cells
T1 sequence (Q07869 1-468): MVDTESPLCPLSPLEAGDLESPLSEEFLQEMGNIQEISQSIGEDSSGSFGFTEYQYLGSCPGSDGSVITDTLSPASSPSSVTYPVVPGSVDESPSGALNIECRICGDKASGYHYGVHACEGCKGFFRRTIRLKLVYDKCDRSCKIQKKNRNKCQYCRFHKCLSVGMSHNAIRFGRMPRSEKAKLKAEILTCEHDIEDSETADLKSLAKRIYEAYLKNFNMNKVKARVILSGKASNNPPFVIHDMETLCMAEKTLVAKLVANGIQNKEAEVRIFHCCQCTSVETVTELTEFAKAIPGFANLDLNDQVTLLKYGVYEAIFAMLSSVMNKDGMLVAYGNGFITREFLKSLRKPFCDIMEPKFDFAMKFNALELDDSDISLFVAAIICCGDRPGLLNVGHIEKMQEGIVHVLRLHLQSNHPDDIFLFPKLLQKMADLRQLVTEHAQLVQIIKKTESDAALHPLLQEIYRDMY
From the text: as §1, §2

[1] = test system: pGL3 reporter vector devoid of a PPAR response element; assay: pGL3 reporter vector devoid of a PPAR response element, SK-Hep1 cells; type: cell-based, human
From the text: (§3) Analysis of the activation of PPARα and PPARγ is based on the transfection of a DNA allowing the expression of a reporter gene (the gene of luciferase) under the control of the PPARs, either endogenous in the case of PPARγ of exogenous in the case of PPARα. The reporter plasmid J3TkLuc comprises three copies of the response element for PPARs of the human apo A-II gene (Staels, B et al. (1995), J. Clin. Invest., 95, 705-712) which are cloned upstream of the promoter of the thymidine kinase gene of the herpes simplex virus in the plasmid pGL3. This reporter gene was obtained by subcloning, in the plasmid pGL3, the plasmid J3TkCAT described above (Fajas, L et al. (1997), J. Biol. Chem., 272, 18779-18789). […] These cells were inoculated at the rate of 20,000 cells per well (96-well plates) and transfected with 150 ng of reporter DNA complexed with a mixture of lipids. In the case of the SK-Hep1 cells, an expression vector for PPARα, described by Sher, T. et al. (1993), Biochemistry, 32, 5598-5604, is cotransfected. After 5, hours, the cells are washed twice and incubated for 36 hours in the presence of the test compound in a fresh culture medium comprising 10% foetal calf serum. At the end of incubation, the cells are lysed and the luciferase activity is measured. This activity is expressed relative to the control value. […]

[2] = test system: pGL3 reporter vector devoid of a PPAR response element; assay: pGL3 reporter vector devoid of a PPAR response element, CV1 cells; type: cell-based, green monkey
From the text: as §3

[3] = day 15, serum, mean ± standard error

Row | SMILES | melting point | other results
1 | CCCC(/C=C/C1=CC(C)(C)COc2ccc(OC)cc21)=C\C(=O)O [Example 49B, (2E, 4E)-5-(7-Methoxy-3,3-dimethyl-2,3-dihydrobenzo[b]-oxepin-5-yl)-3-propylpenta-2,4-dienoic acid] | 174 to 176 °C | –
2 | CC1=C(/C=C/C(C)=C/C(=O)O)COc2ccccc21 [Example 11b] | 216 to 218 °C | –
3 | CC(/C=C/C1=Cc2ccccc2OC1(C)C)=C\C(=O)O [Example 4b] | 164 to 166 °C | –
4 | CC(/C=C/C1=CC(C)(C)COc2ccc(C(C)C)cc21)=C\C(=O)O [Example 40B, (2E, 4E)-5-(7-Isopropyl-3,3-dimethyl-2,3-dihydrobenzo[b]-oxepin-5-yl)-3-methylpenta-2,4-dienoic acid] | 145 °C | –
5 | CC(/C=C/C1=C(c2ccccc2)c2ccccc2OC1)=C\C(=O)O [Example 7b] | 258 to 260 °C | –
6 | COc1ccc2c(c1)C(/C=C/C(C)=C/C(=O)O)=CC1(CCCCC1)CO2 [Example 34B, (2E, 4E)-5-(Spiro[(7-methoxy-2,3-dihydrobenzo[b]-oxepine)-3,1′-cyclohexane]-5-yl)-3-methyl-penta-2,4-dienoic acid] | 173 to 174 °C | –
7 | CC(/C=C/C1=Cc2ccccc2OC1)=C\C(=O)O [Example 3b] | 226 to 228 °C | –
8 | CC(/C=C/C1=Cc2ccccc2OC1c1ccccc1)=C\C(=O)O (stereo not drawn) [Example 14b] | 200 to 202 °C | –
9 | CC(=C/C(=O)O)/C=C/C1=Cc2ccccc2OC1(C)C [Example 5b] | 176 °C | –
10 | CC(/C=C/C1=CC(C)(C)COc2cc(C)c(C)cc21)=C\C(=O)O [Example 37B, 3-Methyl-5-(3,3,7,8-tetramethyl-2,3-dihydrobenzo[b]-oxepin-5-yl)penta-2,4-dienoic acid] | 171 to 173 °C | –
11 | CC(/C=C/C1=CC(C)(C)COc2ccc(O)cc21)=C\C(=O)O [Example 44B] | 206 °C | –
12 | COc1ccc2c(c1)OC(C)(C)C=C2/C=C/C(C)=C/C(=O)O [Example 48B, (2E, 4E)-5-(7-Methoxy-2,2-dimethyl-2H-chromen-4-yl)-3-methylpenta-2,4-dienoic acid] | 162 to 163 °C | –
13 | CCC(/C=C/C1=CC(C)(C)COc2ccc(OC)cc21)=C\C(=O)O [Example 43B, (2E, 4E)-3-Ethyl-5-(7-methoxy-3,3-dimethyl-2,3-dihydrobenzo[b]-oxepin-5-yl)penta-2,4-dienoic acid] | 166 to 168 °C | –
14 | CCOC(=O)/C=C(C)/C=C/C1=Cc2ccccc2OC1 [Example 3a] | 110 to 112 °C | –
15 | CCCCCC1C=C(/C=C/C(C)=C/C(=O)O)c2cc(OC)ccc2OC1 (stereo not drawn) [Example 41, (2E, 4E)-5-(7-Methoxy-3-pentyl-2,3-dihydrobenzo[b]-oxepin-5-yl)-3-methylpenta-2,4-dienoic acid] | 154 to 156 °C | –
16 | CC(/C=C/C1=CC(C)(C)COc2ccc(C3CCCCC3)cc21)=C\C(=O)O [Example 50B, (2E, 4E)-5-(7-Cyclohexyl-3,3-dimethyl-2,3-dihydrobenzo[b]-oxepin-5-yl)-3-methylpenta-2,4-dienoic acid] | 195 to 196 °C | –
17 | CC(/C=C/C1=CC(C)(C)COc2ccc(-c3ccc(C(F)(F)F)cc3)cc21)=C\C(=O)O [Example 45B, (2E, 4E)-5-[3,3-Dimethyl-7-(4-(trifluoromethyl)phenyl)-2,3-dihydrobenzo[b]-oxepin-5-yl]-3-methylpenta-2,4-dienoic acid] | 194 to 196 °C | –
18 | COc1ccc2c(c1)C(/C=C/C(C)=C/C(=O)O)=CC(C)(C)CS2 [Example 47B, (2E, 4E)-5-(7-Methoxy-3,3-dimethyl-2,3-dihydrobenzo[b]-thiepin-5-yl)-3-methylpenta-2,4-dienoic acid] | 159 to 161 °C | –
19 | CCCCCC(/C=C/C1=CC(C)(C)COc2ccc(OC)cc21)=C\C(=O)O [Example 52B, (2E, 4E)-5-(7-Methoxy-3,3-dimethyl-2,3-dihydrobenzo[b]-oxepin-5-yl)-3-pentylpenta-2,4-dienoic acid] | 147 to 149 °C | –
20 | COc1ccc2c(c1)C(/C=C/C(C)=C/C(=O)O)=C(C)C(C)(C)CO2 [Example 54B, (2E, 4E)-5-(7-Methoxy-3,3,4-trimethyl-2,3-dihydrobenzo[b]-oxepin-5-yl)-3-methylpenta-2,4-dienoic acid] | 129 to 130 °C | –
21 | COc1cccc2c1C(/C=C/C(C)=C/C(=O)O)=CC(C)(C)O2 [Example 46B, (2E, 4E)-5-(5-Methoxy-2,2-dimethyl-2H-chromen-4-yl)-3-methylpenta-2,4-dienoic acid] | 160 to 162 °C | –
22 | CC(/C=C/C1=CC(C)(C)COc2cc(-c3ccc(F)cc3)ccc21)=C\C(=O)O [Example 38B, (2E, 4E)-5-[8-(4-Fluorophenyl)-3,3-dimethyl-2,3-dihydrobenzo[b]-oxepin-5-yl]-3-methylpenta-2,4-dienoic acid] | 207 to 209 °C | –
23 | CCCCCCCCCNC1Oc2ccccc2C=C1/C=C/C(C)=C/C(=O)O (stereo not drawn) | 104 to 106 °C | –
24 | COc1ccc2c(c1)OCC(C)(C)C=C2/C=C/C(C)=C/C(=O)O [Example 39B, (2E, 4E)-5-(8-Methoxy-3,3-dimethyl-2,3-dihydrobenzo[b]-oxepin-5-yl)-3-methylpenta-2,4-dienoic acid] | 178 to 180 °C | –
25 | CC(=C/C(=O)O)/C=C/C1=Cc2ccccc2OC1 [Example 12b] | 224 to 226 °C | –
26 | COc1ccc2c(c1)C(/C=C/C(C)=C/C(=O)O)=CC(C)(C)CO2 [Example 16b, (2E, 4E)-5-(3,3-Dimethyl-7-methoxy-2,3-dihydrobenzoxepin-5-yl)-3-methylpenta-2,4-dienoic acid] | – | Glycaemia D3, % variation with respect to the control (db/db mice; day 3): −28%; Glycaemia D3 (db/db mice; day 3, fasting 4 hours, mean ± standard error): 15.4 ± 3.8 mM; Glycaemia D15, % variation with respect to the control (db/db mice; day 15): −40%; Glycaemia D15 (db/db mice; day 15, fasting 4 hours, mean ± standard error): 16.7 ± 4.4 mM; CHOL D15, % variation with respect to the control (db/db mice; day 15, serum): +19%; FFA, % variation with respect to the control (db/db mice; day 15, serum): −20%; HDL-C D15, % variation with respect to the control (db/db mice; day 15, serum): +18%; Triglycerides D15, % variation with respect to the control (db/db mice; day 15, serum): −68%; CHOL D15 (total cholesterol) (db/db mice; [3]): 4.44 ± 0.39 mM; FFA (free fatty acids) (db/db mice; [3]): 0.82 ± 0.23 (ns) mM; HDL-C D15 (HDL cholesterol) (db/db mice; [3]): 3.50 ± 0.37 mM; Triglycerides D15 (db/db mice; [3]): 0.69 ± 0.09 mM; increase of the luciferase signal (PPARγ): 300%; increase of the luciferase signal (PPARα): 250%; luciferase activity with pGL3 reporter vector devoid of a PPAR response element [1]: inactive; luciferase activity with pGL3 reporter vector devoid of a PPAR response element [2]: inactive
27 | CCOC(=O)/C=C(C)/C=C/C1=CC(C)(C)COc2cc(-c3ccc(F)cc3)ccc21 [Example 38A, (2E, 4E)-5-[8-(4-Fluorophenyl)-3,3-dimethyl-2,3-dihydrobenzo[b]-oxepin-5-yl]-3-methylpenta-2,4-dienoic acid ethyl ester] | 113 to 115 °C | –

From patent publication US6596758B1, “Benzopyrans and benzoxepines, pharmaceutical compositions comprising them and preparation process” (Merck Patent GmbH, priority 1998, dated 2003)
